Data as given in paper PMC10043345, “Discovery of BAR502, as potent steroidal antagonist of leukemia inhibitory factor receptor for the treatment of pancreatic adenocarcinoma” (Frontiers in Oncology, 2023).
Entries after “also recorded” stand apart in the source; their conditions may differ.

Assays:
LIF/LIFR complex = molecular target: T1, LIF/LIFR complex (Homo sapiens, UniProt P42702); assay: Alpha Screen inhibition of LIFR/LIF binding (cell-free); conditions: for effect on LIF/LIFR complex formation (LIFR antagonism), in words: cell-free Alpha Screen; for IC50: cell-free, LIFR 4.5 nM, biotinylated LIF 9 nM, read-out: LIFR IC50 AlphaScreen (inhibition of LIFR/LIF binding)
T1 construct: purchased Sino Biological (LIFR); R&D Systems (LIF)
T1 sequence (P42702 45-833 limits assumed): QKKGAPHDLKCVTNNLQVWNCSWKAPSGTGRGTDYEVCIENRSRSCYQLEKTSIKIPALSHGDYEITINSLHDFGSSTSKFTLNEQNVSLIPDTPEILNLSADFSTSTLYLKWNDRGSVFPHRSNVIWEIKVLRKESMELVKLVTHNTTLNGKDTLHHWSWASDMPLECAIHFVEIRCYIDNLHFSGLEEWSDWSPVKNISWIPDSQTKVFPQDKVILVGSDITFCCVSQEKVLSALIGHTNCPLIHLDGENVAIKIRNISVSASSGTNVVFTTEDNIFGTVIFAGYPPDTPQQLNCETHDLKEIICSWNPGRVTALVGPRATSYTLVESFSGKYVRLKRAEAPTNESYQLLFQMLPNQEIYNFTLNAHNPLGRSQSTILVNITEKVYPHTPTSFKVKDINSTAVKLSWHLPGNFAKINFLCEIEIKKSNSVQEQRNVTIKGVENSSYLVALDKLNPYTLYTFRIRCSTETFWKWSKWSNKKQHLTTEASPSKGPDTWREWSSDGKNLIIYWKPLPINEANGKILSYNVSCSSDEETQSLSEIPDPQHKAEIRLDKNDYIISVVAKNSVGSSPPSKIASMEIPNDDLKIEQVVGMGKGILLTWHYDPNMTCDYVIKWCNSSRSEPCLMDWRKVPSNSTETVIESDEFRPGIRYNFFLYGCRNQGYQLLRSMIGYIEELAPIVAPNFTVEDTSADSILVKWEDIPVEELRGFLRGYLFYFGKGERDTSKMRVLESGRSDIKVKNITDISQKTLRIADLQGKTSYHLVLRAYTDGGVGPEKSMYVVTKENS
Protocol: Recombinant human LIFR (His Tag) and biotinylated recombinant human LIF were purchased from Sino Biologicals (Sino Biological Europe GmbH, Dusseldorf, Germany) and R&D Systems (Abingdon, UK), respectively, and both were reconstituted as required by the manufacturer. […] The assay was carried out in white, low-volume, 384-well AlphaPlates (PerkinElmer, Waltham, MA, USA) using a final volume of 25 µL and an assay buffer containing 25 mM Hepes (pH 7.4), 100 mM NaCl, and 0.005% Kathon. The concentration of DMSO in each well was maintained at 5%. […] Then, LIF was added (biotinylated, final concentration 9 nM), and the samples were incubated for 15 min prior to adding His-Tag acceptor beads (final concentration 20 ng/µL) for 30 min. Then, streptavidin donor beads were added (final concentration 20 ng/µL), and the plate was incubated in the dark for 2 h and then read in an EnSpire Alpha multimode plate reader (PerkinElmer, Waltham, MA, USA).

MIA PaCa-2 cells = assay: Scratch wound healing assay; format: cell-based, human; conditions: LIF 10 ng/mL alone; 0, 24, 48 h
Protocol: MIA PaCa-2 cells were seeded in DMEM complete medium at […] cells/well into 24-well plate and used at 70-80% confluence rate. The assay was performed as previously described ([20]), particularly on the day 1, the cell monolayers were gently scraped vertically with a new 0.2 mL pipette tip across the centre of the well. After scratching, the well was gently washed twice with PBS (Euroclone, Milan, Italy) to remove the detached cells and cell debris and finally fresh medium containing LIF (10 ng/mL) alone or in combination with BAR502 (10 µM) or EC359 (25 nM) was added into each well. Immediately after scratch creation, the 24-plate was placed under a phase-contrast microscope and the first image of the scratch acquired (T0) with using a OPTIKAM Pro Cool 5 – 4083.CL5 camera. Cells were grown for additional 48 h and images taken at 24h (T1) and 48 h (T2). The gap distance between scarps borders was quantified by assessing that area between the two margins of the scratches. All experiments were performed in triplicate.

| Compound | effect on LIF/LIFR complex formation (LIFR antagonism), in words (LIF/LIFR complex) | IC50 (LIF/LIFR complex) | reduction of the scratch area (wound closure) (MIA PaCa-2 cells) |
| --- | --- | --- | --- |
| C[C@H](CCC(=O)O)[C@H]1CC[C@H]2[C@@H]3[C@H](O)C[C@@H]4C[C@H](O)CC[C@]4(C)[C@H]3CC[C@]12C [CDCA, Chenodeoxycholic acid] | slight, thought significant, inhibitory effect; also recorded: weak LIFR antagonists | 48 µM |  |
| C[C@H](CCC(=O)O)[C@H]1CC[C@H]2[C@@H]3CC[C@@H]4C[C@H](O)CC[C@]4(C)[C@H]3CC[C@]12C [LCA, Lithocholic acid] | slight, thought significant, inhibitory effect; also recorded: weak LIFR antagonists | 48.3 µM |  |
| Leukemia Inhibitory factor [LIF] |  |  | ≈ 16% |
